Data on nine compounds can be found in ChEMBL document CHEMBL1150266, “Design and synthesis of conformationally constrained glucagon-like peptide-1 derivatives with increased plasma stability and prolonged in vivo activity” (J Med Chem, 2008).

Each structure is given as a SMILES string. Where a SMILES comes first, the peptide text is derived from it. Bridges are numbered along the chain shown (N, C = ends). [ ]: non-standard residue; d: D form. Phe(4-COOH) = N[C@@H](Cc1ccc(C(=O)O)cc1)C(=O)O

Data set [1] has as its target T1, Glucagon-like peptide 1 receptor (Homo sapiens, UniProt P43220). Description: Displacement of [125I]GLP1 from human GLP1R expressed in CHOK1 cells. Format: cell-based, CHO-K1.
A further data set deals with Plasma. Description: (§1) Stability in human plasma at 1000 ng/mL at 37 degC. Format: ADME, cell-free.
Data set [2] is described as follows: as §1. In kind it is ADME, cell-free.
Data set [3] addresses T1, Glucagon-like peptide 1 receptor. Description: Agonist activity at human GLP1R expressed in CHO cells assessed as increase in cAMP level by cAMP-response element/luciferase activation assay. In kind it is functional, cell-based. A general note: Changes in cAMP serve as a functional read-out for many G protein-coupled receptors.
Data set [4] is described as follows: Stability in human plasma at 1000 ng/mL at 37 degC after 5 hrs. Format: ADME, cell-free. The note with it: read-out: Stability.

T1 sequence (P43220 whole entry): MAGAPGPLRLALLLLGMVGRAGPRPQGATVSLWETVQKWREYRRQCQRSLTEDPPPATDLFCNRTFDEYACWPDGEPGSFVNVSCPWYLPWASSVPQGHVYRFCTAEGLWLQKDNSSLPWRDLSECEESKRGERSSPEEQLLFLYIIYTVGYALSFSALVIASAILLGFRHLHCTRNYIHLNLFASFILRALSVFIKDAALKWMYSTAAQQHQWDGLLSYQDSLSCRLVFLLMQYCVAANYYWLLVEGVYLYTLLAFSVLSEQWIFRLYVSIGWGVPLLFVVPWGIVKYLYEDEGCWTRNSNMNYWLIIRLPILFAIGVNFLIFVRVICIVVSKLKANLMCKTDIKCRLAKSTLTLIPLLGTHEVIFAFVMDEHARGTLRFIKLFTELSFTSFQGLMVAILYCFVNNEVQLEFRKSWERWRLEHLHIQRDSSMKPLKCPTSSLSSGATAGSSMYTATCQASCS

Take `CC[C@H](C)[C@H](NC(=O)[C@H](Cc1ccccc1)NC(=O)[C@H](CCC(=O)O)NC(=O)[C@H](CCCCN)NC(=O)[C@H](C)NC(=O)[C@H](C)NC(=O)[C@H](CCC(N)=O)NC(=O)C(C)(C)NC(=O)[C@H](CCC(=O)O)NC(=O)[C@H](CC(C)C)NC(=O)[C@H](Cc1ccc(O)cc1)NC(=O)[C@H](CO)NC(=O)[C@H](CO)NC(=O)[C@@H](NC(=O)[C@H](CC(=O)O)NC(=O)[C@H](CO)NC(=O)[C@@H](NC(=O)[C@H](Cc1ccccc1)NC(=O)[C@@H](NC(=O)CNC(=O)[C@H](CCC(=O)O)NC(=O)CNC(=O)[C@@H](N)Cc1c[nH]cn1)[C@@H](C)O)[C@@H](C)O)C(C)C)C(=O)N[C@@H](C)C(=O)N[C@@H](Cc1c[nH]c2ccccc12)C(=O)N[C@@H](CC(C)C)C(=O)N[C@H](C(=O)N[C@@H](CCCCN)C(=O)NCC(=O)N[C@@H](CCCNC(=N)N)C(=O)NCC(N)=O)C(C)C`: in data set [1], the IC50 (in general, the concentration that gives 50% inhibition) is 2.9 nM. For the same compound, in the data set on Plasma, the Stability entry is on record as “Stable”.

Consider `CC[C@H](C)[C@H](NC(=O)[C@H](Cc1ccccc1)NC(=O)[C@H](CCC(=O)O)NC(=O)[C@H](CCCCN)NC(=O)[C@H](C)NC(=O)[C@H](C)NC(=O)[C@H](CCC(N)=O)NC(=O)CNC(=O)[C@H](CCC(=O)O)NC(=O)[C@H](CC(C)C)NC(=O)[C@H](Cc1ccc(O)cc1)NC(=O)[C@H](CO)NC(=O)[C@H](CO)NC(=O)[C@@H](NC(=O)[C@H](CC(=O)O)NC(=O)[C@H](CO)NC(=O)[C@@H](NC(=O)[C@H](Cc1ccccc1)NC(=O)[C@@H](NC(=O)CNC(=O)[C@H](CCC(=O)O)NC(=O)[C@H](C)NC(=O)[C@@H](N)Cc1cnc[nH]1)[C@@H](C)O)[C@@H](C)O)C(C)C)C(=O)N[C@@H](C)C(=O)N[C@@H](Cc1c[nH]c2ccccc12)C(=O)N[C@@H](CC(C)C)C(=O)N[C@H](C(=O)N[C@@H](CCCCN)C(=O)NCC(=O)N[C@@H](CCCNC(=N)N)C(=O)NCC(N)=O)C(C)C`, for which the half-life (in general, how long it takes for the measured level to halve) at 1000 ng/mL in data set [2] stood at 0.5 h.

Turning to `CC[C@H](C)[C@H](NC(=O)[C@H](Cc1ccccc1)NC(=O)[C@H](CCC(=O)O)NC(=O)[C@@H]1CCCCNC(=O)CC[C@H](NC(=O)[C@H](CCC(=O)O)NC(=O)[C@H](CC(C)C)NC(=O)[C@H](Cc2ccc(O)cc2)NC(=O)[C@H](CO)NC(=O)[C@H](CO)NC(=O)[C@@H](NC(=O)[C@H](CC(=O)O)NC(=O)[C@H](CO)NC(=O)[C@@H](NC(=O)[C@H](Cc2ccccc2)NC(=O)[C@@H](NC(=O)CNC(=O)[C@H](CCC(=O)O)NC(=O)CNC(=O)[C@@H](N)Cc2c[nH]cn2)[C@@H](C)O)[C@@H](C)O)C(C)C)C(=O)N[C@@H](CCC(N)=O)C(=O)N[C@@H](C)C(=O)N[C@@H](C)C(=O)N1)C(=O)N[C@@H](C)C(=O)N[C@@H](Cc1c[nH]c2ccccc12)C(=O)N[C@@H](CC(C)C)C(=O)N[C@H](C(=O)N[C@@H](CCCCN)C(=O)NCC(=O)N[C@@H](CCCNC(=N)N)C(=O)NCC(N)=O)C(C)C`, the IC50 in data set [1] worked out at 2.1 nM. The EC50 (usually the concentration that produces a half-maximal response) in data set [3] turned out to be 0.01 nM. Also, the Stability entry in the data set on Plasma was “Stable”. Moreover, the remaining at 5 h, 1000 ng/mL in data set [4] worked out at 75%.

For `CC[C@H](C)[C@H](NC(=O)[C@H](Cc1ccccc1)NC(=O)[C@H](CCC(=O)O)NC(=O)[C@H](CCCCN)NC(=O)[C@H](C)NC(=O)[C@H](C)NC(=O)[C@H](CCC(N)=O)NC(=O)CNC(=O)[C@H](CCC(=O)O)NC(=O)[C@H](CC(C)C)NC(=O)[C@H](Cc1ccc(O)cc1)NC(=O)[C@H](CO)NC(=O)[C@H](CO)NC(=O)[C@@H](NC(=O)[C@H](CC(=O)O)NC(=O)[C@H](CO)NC(=O)[C@@H](NC(=O)[C@H](Cc1ccccc1)NC(=O)[C@@H](NC(=O)CNC(=O)[C@H](CCC(=O)O)NC(=O)CNC(=O)[C@@H](N)Cc1cnc[nH]1)[C@@H](C)O)[C@@H](C)O)C(C)C)C(=O)N[C@@H](C)C(=O)N[C@@H](Cc1c[nH]c2ccccc12)C(=O)N[C@@H](CC(C)C)C(=O)N[C@H](C(=O)N[C@@H](CCCCN)C(=O)NCC(=O)N[C@@H](CCCNC(=N)N)C(=O)NCC(=O)O)C(C)C`, in data set [2], the half-life at 1000 ng/mL is 5 h.

`CC[C@H](C)[C@H](NC(=O)[C@H](Cc1ccccc1)NC(=O)[C@H](CCC(=O)O)NC(=O)[C@H](CCCCN)NC(=O)[C@H](C)NC(=O)[C@H](C)NC(=O)[C@H](CCC(N)=O)NC(=O)[C@@H]1CCCCNC(=O)CC[C@H](NC(=O)[C@H](CO)NC(=O)[C@@H](NC(=O)[C@H](CC(=O)O)NC(=O)[C@H](CO)NC(=O)[C@@H](NC(=O)[C@H](Cc2ccccc2)NC(=O)[C@@H](NC(=O)CNC(=O)[C@H](CCC(=O)O)NC(=O)CNC(=O)[C@@H](N)Cc2cnc[nH]2)[C@@H](C)O)[C@@H](C)O)C(C)C)C(=O)N[C@@H](Cc2ccc(O)cc2)C(=O)N[C@@H](CC(C)C)C(=O)N[C@@H](CCC(=O)O)C(=O)N1)C(=O)N[C@@H](C)C(=O)N[C@@H](Cc1c[nH]c2ccccc12)C(=O)N[C@@H](CC(C)C)C(=O)N[C@H](C(=O)N[C@@H](CCCCN)C(=O)NCC(=O)N[C@@H](CCCNC(=N)N)C(=O)NCC(N)=O)C(C)C` (H-HGEGTFTSDVSEYLEKQAAKEFIAWLVKGRG-NH2; lactam 12-16) had a 50% inhibitory concentration (IC50) in data set [1] of 3.6 nM. The EC50 in data set [3] was determined as 0.006 nM. The Stability entry in the data set with Plasma is reported as “Stable”.

The compound `CC[C@H](C)[C@H](NC(=O)[C@H](Cc1ccccc1)NC(=O)[C@H](CCC(=O)O)NC(=O)[C@@H]1CCCCNC(=O)C[C@H](NC(=O)[C@H](CCC(=O)O)NC(=O)[C@H](CC(C)C)NC(=O)[C@H](Cc2ccc(O)cc2)NC(=O)[C@H](CO)NC(=O)[C@H](CO)NC(=O)[C@@H](NC(=O)[C@H](CC(=O)O)NC(=O)[C@H](CO)NC(=O)[C@@H](NC(=O)[C@H](Cc2ccccc2)NC(=O)[C@@H](NC(=O)CNC(=O)[C@H](CCC(=O)O)NC(=O)CNC(=O)[C@@H](N)Cc2c[nH]cn2)[C@@H](C)O)[C@@H](C)O)C(C)C)C(=O)N[C@@H](CCC(N)=O)C(=O)N[C@@H](C)C(=O)N[C@@H](C)C(=O)N1)C(=O)N[C@@H](C)C(=O)N[C@@H](Cc1c[nH]c2ccccc12)C(=O)N[C@@H](CC(C)C)C(=O)N[C@H](C(=O)N[C@@H](CCCCN)C(=O)NCC(=O)N[C@@H](CCCNC(=N)N)C(=O)NCC(N)=O)C(C)C` (H-HGEGTFTSDVSSYLEDQAAKEFIAWLVKGRG-NH2; lactam 16-20) showed a concentration for half-maximal inhibition (IC50) in data set [1] of 64 nM. For the same compound, the EC50 in data set [3] turned out to be 0.14 nM.

In turn, `CC(C)C[C@H](NC(=O)[C@H](Cc1ccc(O)cc1)NC(=O)[C@H](CO)NC(=O)[C@H](CO)NC(=O)[C@@H](NC(=O)[C@H](CC(=O)O)NC(=O)[C@H](CO)NC(=O)[C@@H](NC(=O)[C@H](Cc1ccccc1)NC(=O)[C@@H](NC(=O)CNC(=O)[C@H](CCC(=O)O)NC(=O)CNC(=O)[C@@H](N)Cc1c[nH]cn1)[C@@H](C)O)[C@@H](C)O)C(C)C)C(=O)N[C@@H](CCC(=O)O)C(=O)NCC(=O)N[C@@H](CCC(N)=O)C(=O)N[C@@H](C)C(=O)N[C@H]1CCC(=O)NCCCC[C@@H](C(=O)N[C@@H](C)C(=O)N[C@@H](Cc2c[nH]c3ccccc23)C(=O)N[C@@H](CC(C)C)C(=O)N[C@H](C(=O)N[C@@H](CCCCN)C(=O)NCC(=O)N[C@@H](CCCNC(=N)N)C(=O)NCC(N)=O)C(C)C)NC(=O)[C@H](Cc2ccccc2)NC(=O)[C@H](CCC(=O)O)NC(=O)[C@H](CCCCN)NC1=O` (H-HGEGTFTSDVSSYLEGQAEKEFKAWLVKGRG-NH2; lactam 19-23) came in with an IC50 in data set [1] above 1000 nM. The EC50 in data set [3] came out at 15 nM.

In data set [1], `CC[C@H](C)[C@H](NC(=O)[C@H](Cc1ccccc1)NC(=O)[C@H](CCC(=O)O)NC(=O)[C@@H]1CCC(=O)NCCCC[C@H](NC(=O)[C@H](CCC(=O)O)NC(=O)[C@H](CC(C)C)NC(=O)[C@H](Cc2ccc(O)cc2)NC(=O)[C@H](CO)NC(=O)[C@H](CO)NC(=O)[C@@H](NC(=O)[C@H](CC(=O)O)NC(=O)[C@H](CO)NC(=O)[C@@H](NC(=O)[C@H](Cc2ccccc2)NC(=O)[C@@H](NC(=O)CNC(=O)[C@H](CCC(=O)O)NC(=O)CNC(=O)[C@@H](N)Cc2c[nH]cn2)[C@@H](C)O)[C@@H](C)O)C(C)C)C(=O)N[C@@H](CCC(N)=O)C(=O)N[C@@H](C)C(=O)N[C@@H](C)C(=O)N1)C(=O)N[C@@H](C)C(=O)N[C@@H](Cc1c[nH]c2ccccc12)C(=O)N[C@@H](CC(C)C)C(=O)N[C@H](C(=O)N[C@@H](CCCCN)C(=O)NCC(=O)N[C@@H](CCCNC(=N)N)C(=O)NCC(N)=O)C(C)C` (H-HGEGTFTSDVSSYLEKQAAEEFIAWLVKGRG-NH2; lactam 16-20) showed an IC50 of 2.7 nM. For the same compound, the EC50 in data set [3] is 0.008 nM.

As for `CC[C@H](C)[C@H](NC(=O)[C@H](Cc1ccccc1)NC(=O)[C@H](CCC(=O)O)NC(=O)[C@@H]1CCCCNC(=O)c2ccc(cc2)C[C@H](NC(=O)[C@H](CO)NC(=O)[C@H](CO)NC(=O)[C@@H](NC(=O)[C@H](CC(=O)O)NC(=O)[C@H](CO)NC(=O)[C@@H](NC(=O)[C@H](Cc2ccccc2)NC(=O)[C@@H](NC(=O)CNC(=O)[C@H](CCC(=O)O)NC(=O)CNC(=O)[C@@H](N)Cc2c[nH]cn2)[C@@H](C)O)[C@@H](C)O)C(C)C)C(=O)N[C@@H](CC(C)C)C(=O)N[C@@H](CCC(=O)O)C(=O)NCC(=O)N[C@@H](CCC(N)=O)C(=O)N[C@@H](C)C(=O)N[C@@H](C)C(=O)N1)C(=O)N[C@@H](C)C(=O)N[C@@H](Cc1c[nH]c2ccccc12)C(=O)N[C@@H](CC(C)C)C(=O)N[C@H](C(=O)N[C@@H](CCCCN)C(=O)NCC(=O)N[C@@H](CCCNC(=N)N)C(=O)NCC(N)=O)C(C)C` (H-HGEGTFTSDVSS[Phe(4-COOH)]LEGQAAKEFIAWLVKGRG-NH2; lactam 13-20), the IC50 in data set [1] was 2000 nM. Besides, in data set [3], the EC50 was 9 nM.
